Laboratory results reported in ChEMBL document CHEMBL4145695, “Histone Deacetylase 6-Selective Inhibitors and the Influence of Capping Groups on Hydroxamate-Zinc Denticity” (J Med Chem, 2018).

How the values were obtained:
[1] = molecular target: Histone deacetylase 1 (Homo sapiens, UniProt Q13547); test: Inhibition of human recombinant HDAC1 incubated for 90 mins using fluorogenic substrate ZMAL (Z-Lys(Ac)-AMC) by fluorescence based assay
[2] = molecular target: T1, Protein deacetylase HDAC6 (Homo sapiens, UniProt Q9UBN7); test: Inhibition of human recombinant HDAC6 incubated for 90 mins using fluorogenic substrate ZMAL (Z-Lys(Ac)-AMC) by fluorescence based assay
T1 sequence (Q9UBN7 whole entry): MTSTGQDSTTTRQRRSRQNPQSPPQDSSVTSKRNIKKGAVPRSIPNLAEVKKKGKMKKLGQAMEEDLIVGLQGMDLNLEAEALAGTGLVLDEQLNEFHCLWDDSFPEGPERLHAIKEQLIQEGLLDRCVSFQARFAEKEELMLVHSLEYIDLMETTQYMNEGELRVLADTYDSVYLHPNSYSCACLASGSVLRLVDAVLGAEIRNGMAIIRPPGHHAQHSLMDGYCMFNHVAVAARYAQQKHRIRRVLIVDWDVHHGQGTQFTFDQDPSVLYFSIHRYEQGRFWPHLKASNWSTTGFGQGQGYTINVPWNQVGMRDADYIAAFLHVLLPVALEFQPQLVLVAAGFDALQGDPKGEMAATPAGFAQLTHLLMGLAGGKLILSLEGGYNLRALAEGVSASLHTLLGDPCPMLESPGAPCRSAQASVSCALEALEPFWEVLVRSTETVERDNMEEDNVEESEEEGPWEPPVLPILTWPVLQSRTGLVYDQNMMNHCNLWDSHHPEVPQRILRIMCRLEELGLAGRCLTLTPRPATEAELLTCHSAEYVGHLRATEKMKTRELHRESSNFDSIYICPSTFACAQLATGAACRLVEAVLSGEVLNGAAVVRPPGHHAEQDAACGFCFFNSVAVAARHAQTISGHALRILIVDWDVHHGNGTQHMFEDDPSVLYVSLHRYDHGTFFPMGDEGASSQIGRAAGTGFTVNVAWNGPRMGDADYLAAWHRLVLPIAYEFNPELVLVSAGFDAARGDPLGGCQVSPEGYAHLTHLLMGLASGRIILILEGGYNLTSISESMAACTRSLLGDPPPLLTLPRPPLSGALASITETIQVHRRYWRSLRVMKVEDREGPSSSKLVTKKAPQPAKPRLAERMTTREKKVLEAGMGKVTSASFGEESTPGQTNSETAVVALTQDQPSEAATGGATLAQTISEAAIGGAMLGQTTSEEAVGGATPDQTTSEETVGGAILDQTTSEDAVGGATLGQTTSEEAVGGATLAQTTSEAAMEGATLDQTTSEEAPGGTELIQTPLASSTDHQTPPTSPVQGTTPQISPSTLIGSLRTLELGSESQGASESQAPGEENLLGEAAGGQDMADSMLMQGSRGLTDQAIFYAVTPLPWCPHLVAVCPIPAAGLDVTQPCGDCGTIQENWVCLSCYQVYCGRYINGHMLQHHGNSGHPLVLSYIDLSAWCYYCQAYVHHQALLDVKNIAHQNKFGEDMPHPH

[3] = species: Homo sapiens; test: Selectivity index, ratio of IC50 for inhibition of human recombinant HDAC1 to IC50 for inhibition of human recombinant HDAC6

Chain of Histone deacetylase 1 (Q13547 whole entry): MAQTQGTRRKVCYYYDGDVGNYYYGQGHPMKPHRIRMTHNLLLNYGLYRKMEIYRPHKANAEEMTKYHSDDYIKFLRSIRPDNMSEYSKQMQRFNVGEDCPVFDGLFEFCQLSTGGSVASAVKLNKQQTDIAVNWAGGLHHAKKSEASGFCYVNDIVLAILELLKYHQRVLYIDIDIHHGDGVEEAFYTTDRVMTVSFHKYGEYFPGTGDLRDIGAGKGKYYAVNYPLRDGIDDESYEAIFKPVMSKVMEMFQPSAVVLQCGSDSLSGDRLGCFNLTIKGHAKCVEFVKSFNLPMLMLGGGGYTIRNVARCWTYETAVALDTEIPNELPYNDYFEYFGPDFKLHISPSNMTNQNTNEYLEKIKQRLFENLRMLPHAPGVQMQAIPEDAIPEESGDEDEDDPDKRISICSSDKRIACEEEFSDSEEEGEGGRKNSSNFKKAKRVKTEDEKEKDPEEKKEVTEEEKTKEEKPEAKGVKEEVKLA

IC50 [1] | IC50 [2] | Ratio IC50 [3] | Structure (SMILES)
0.27 µM | 11 nM | 25 | Cc1cc(C)cc(C(=O)N(CC(=O)NC2CCCCC2)Cc2ccc(C(=O)NO)cc2)c1
0.008 µM | 14 nM | 0.6 | CN(C)c1ccc(C(=O)N(CC(=O)NCc2ccccc2)Cc2ccc(C(=O)NO)cc2)cc1
> 1000 µM | – | – | CN(Cc1ccc(C(=O)NO)cc1F)CC12CC3CC(CC(C3)C1)C2
